In PubChem BioAssay AID1963968 (Molecular Pharmacology Branch, DTP, NCI, 2024):

System: 945468-187-T-J3-PDC spheroids with HUVEC/MSC, viability
Experiment: Anticancer human tumor 945468-187-T-J3-PDC patient-derived rectal carcinoma cell line growth inhibition [PI3K]
Settings: for IC50: curve of first compound; for viability, T/C: stronger effect = lower value
Summary of the method: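 Tumor cells were combined with HUVEC and MSCs into spheroids, then dosed with PI3K-inhibitor combinations over half-log ranges capped near clinical Cmax or 10 microM.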

[1] = second compound 0.0316 µM, first compound 0.00949 µM
[2] = second compound 0.0316 µM, first compound 0.03 µM
[3] = second compound 0.0316 µM, first compound 0.0949 µM
[4] = second compound 0.0316 µM, first compound 0.3 µM
[5] = second compound 0.0316 µM, first compound 0.949 µM
[6] = second compound 0.0316 µM, first compound 3 µM
[7] = second compound 0.1 µM, first compound 0.00949 µM
[8] = second compound 0.1 µM, first compound 0.03 µM
[9] = second compound 0.1 µM, first compound 0.0949 µM
[10] = second compound 0.1 µM, first compound 0.3 µM
[11] = second compound 0.1 µM, first compound 0.949 µM
[12] = second compound 0.1 µM, first compound 3 µM
[13] = second compound 0.316 µM, first compound 0.00949 µM
[14] = second compound 0.316 µM, first compound 0.03 µM
[15] = second compound 0.316 µM, first compound 0.0949 µM
[16] = second compound 0.316 µM, first compound 0.3 µM
[17] = second compound 0.316 µM, first compound 0.949 µM
[18] = second compound 0.316 µM, first compound 3 µM
[19] = second compound 1 µM, first compound 0.00949 µM
[20] = second compound 1 µM, first compound 0.03 µM
[21] = second compound 1 µM, first compound 0.0949 µM
[22] = second compound 1 µM, first compound 0.3 µM
[23] = second compound 1 µM, first compound 0.949 µM
[24] = second compound 1 µM, first compound 3 µM
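Also: spheroids exposed to agents for 7 days before viability read.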
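For viability, T/C in this document: 100% = DMSO vehicle control viability.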

Cn1cnc2c(F)c(Nc3ccc(Br)cc3Cl)c(C(=O)NOCCO)cc21 + CC(Nc1ccc2c(c1)OCCn1cc(N3C(=O)OCC3C(F)F)nc1-2)C(N)=O
IC50 (second compound 0.00316 µM): > 3000 nM | IC50 (second compound 0.01 µM): > 3000 nM | IC50 (second compound 0.0316 µM): > 3000 nM | IC50 (second compound 0.1 µM): 834 nM | IC50 (second compound 0.316 µM): 118 nM | IC50 (second compound 1 µM): 32 nM | viability, T/C (second compound 0.00316 µM, first compound 0.00949 µM): 105% | viability, T/C (second compound 0.00316 µM, first compound 0.03 µM): 100% | viability, T/C (second compound 0.00316 µM, first compound 0.0949 µM): 117% | viability, T/C (second compound 0.00316 µM, first compound 0.3 µM): 116% | viability, T/C (second compound 0.00316 µM, first compound 0.949 µM): 114% | viability, T/C (second compound 0.00316 µM, first compound 3 µM): 95.3% | viability, T/C (second compound 0.01 µM, first compound 0.00949 µM): 103% | viability, T/C (second compound 0.01 µM, first compound 0.03 µM): 105% | viability, T/C (second compound 0.01 µM, first compound 0.0949 µM): 114% | viability, T/C (second compound 0.01 µM, first compound 0.3 µM): 111% | viability, T/C (second compound 0.01 µM, first compound 0.949 µM): 126% | viability, T/C (second compound 0.01 µM, first compound 3 µM): 91.2% | viability, T/C [1]: 107% | viability, T/C [2]: 119% | viability, T/C [3]: 120% | viability, T/C [4]: 100% | viability, T/C [5]: 97.1% | viability, T/C [6]: 62.7% | viability, T/C [7]: 114% | viability, T/C [8]: 116% | viability, T/C [9]: 104% | viability, T/C [10]: 73.3% | viability, T/C [11]: 49.5% | viability, T/C [12]: 33% | viability, T/C [13]: 85.2% | viability, T/C [14]: 73.1% | viability, T/C [15]: 52.7% | viability, T/C [16]: 35.4% | viability, T/C [17]: 26% | viability, T/C [18]: 19.2% | viability, T/C [19]: 60.4% | viability, T/C [20]: 50.7% | viability, T/C [21]: 36.9% | viability, T/C [22]: 23.3% | viability, T/C [23]: 15.9% | viability, T/C [24]: 11.7%

Cn1cnc2c(F)c(Nc3ccc(Br)cc3Cl)c(C(=O)NOCCO)cc21 + Cc1nc(NC(=O)N2CCCC2C(N)=O)sc1-c1ccnc(C(C)(C)C(F)(F)F)c1
IC50 (second compound 0.0316 µM): > 3000 nM | IC50 (second compound 0.1 µM): > 3000 nM | IC50 (second compound 0.316 µM): > 3000 nM | IC50 (second compound 1 µM): 1180 nM | IC50 (second compound 3.16 µM): 286 nM | IC50 (second compound 10 µM): 20.9 nM | viability, T/C [1]: 111% | viability, T/C [2]: 124% | viability, T/C [3]: 129% | viability, T/C [4]: 120% | viability, T/C [5]: 123% | viability, T/C [6]: 107% | viability, T/C [7]: 113% | viability, T/C [8]: 109% | viability, T/C [9]: 114% | viability, T/C [10]: 122% | viability, T/C [11]: 114% | viability, T/C [12]: 90.4% | viability, T/C [13]: 114% | viability, T/C [14]: 123% | viability, T/C [15]: 116% | viability, T/C [16]: 123% | viability, T/C [17]: 94.1% | viability, T/C [18]: 60.4% | viability, T/C [19]: 117% | viability, T/C [20]: 125% | viability, T/C [21]: 100% | viability, T/C [22]: 101% | viability, T/C [23]: 51.8% | viability, T/C [24]: 34.2% | viability, T/C (second compound 3.16 µM, first compound 0.00949 µM): 105% | viability, T/C (second compound 3.16 µM, first compound 0.03 µM): 87% | viability, T/C (second compound 3.16 µM, first compound 0.0949 µM): 61.6% | viability, T/C (second compound 3.16 µM, first compound 0.3 µM): 55.7% | viability, T/C (second compound 3.16 µM, first compound 0.949 µM): 30% | viability, T/C (second compound 3.16 µM, first compound 3 µM): 20.2% | viability, T/C (second compound 10 µM, first compound 0.00949 µM): 56.9% | viability, T/C (second compound 10 µM, first compound 0.03 µM): 46.5% | viability, T/C (second compound 10 µM, first compound 0.0949 µM): 34.3% | viability, T/C (second compound 10 µM, first compound 0.3 µM): 20.6% | viability, T/C (second compound 10 µM, first compound 0.949 µM): 10.7% | viability, T/C (second compound 10 µM, first compound 3 µM): 4.74%

CNC(=O)c1ccc(N2C(=S)N(c3ccc(C#N)c(C(F)(F)F)c3)C(=O)C2(C)C)cc1F + COc1c(OCCCN2CCOCC2)ccc2c3n(c(=NC(=O)c4cnc(N)nc4)nc12)CCN3
IC50 (second compound 0.00316 µM): > 10000 nM | IC50 (second compound 0.01 µM): > 10000 nM | IC50 (second compound 0.0316 µM): > 10000 nM | IC50 (second compound 0.1 µM): < 31.6 nM | IC50 (second compound 0.316 µM): < 31.6 nM | IC50 (second compound 1 µM): < 31.6 nM | viability, T/C (second compound 0.00316 µM, first compound 0.0316 µM): 102% | viability, T/C (second compound 0.00316 µM, first compound 0.1 µM): 94.3% | viability, T/C (second compound 0.00316 µM, first compound 0.316 µM): 98.5% | viability, T/C (second compound 0.00316 µM, first compound 1 µM): 84.6% | viability, T/C (second compound 0.00316 µM, first compound 3.16 µM): 98.2% | viability, T/C (second compound 0.00316 µM, first compound 10 µM): 99.9% | viability, T/C (second compound 0.01 µM, first compound 0.0316 µM): 98.9% | viability, T/C (second compound 0.01 µM, first compound 0.1 µM): 97.1% | viability, T/C (second compound 0.01 µM, first compound 0.316 µM): 90% | viability, T/C (second compound 0.01 µM, first compound 1 µM): 95.2% | viability, T/C (second compound 0.01 µM, first compound 3.16 µM): 100% | viability, T/C (second compound 0.01 µM, first compound 10 µM): 117% | viability, T/C (second compound 0.0316 µM, first compound 0.0316 µM): 101% | viability, T/C (second compound 0.0316 µM, first compound 0.1 µM): 103% | viability, T/C (second compound 0.0316 µM, first compound 0.316 µM): 96.7% | viability, T/C (second compound 0.0316 µM, first compound 1 µM): 104% | viability, T/C (second compound 0.0316 µM, first compound 3.16 µM): 111% | viability, T/C (second compound 0.0316 µM, first compound 10 µM): 98% | viability, T/C (second compound 0.1 µM, first compound 0.0316 µM): 44.1% | viability, T/C (second compound 0.1 µM, first compound 0.1 µM): 39.7% | viability, T/C (second compound 0.1 µM, first compound 0.316 µM): 46.2% | viability, T/C (second compound 0.1 µM, first compound 1 µM): 53.9% | viability, T/C (second compound 0.1 µM, first compound 3.16 µM): 64.6% | viability, T/C (second compound 0.1 µM, first compound 10 µM): 51.5% | viability, T/C (second compound 0.316 µM, first compound 0.0316 µM): 25.1% | viability, T/C (second compound 0.316 µM, first compound 0.1 µM): 26.6% | viability, T/C (second compound 0.316 µM, first compound 0.316 µM): 22.8% | viability, T/C (second compound 0.316 µM, first compound 1 µM): 23.4% | viability, T/C (second compound 0.316 µM, first compound 3.16 µM): 28.4% | viability, T/C (second compound 0.316 µM, first compound 10 µM): 28.5% | viability, T/C (second compound 1 µM, first compound 0.0316 µM): 17.5% | viability, T/C (second compound 1 µM, first compound 0.1 µM): 21.3% | viability, T/C (second compound 1 µM, first compound 0.316 µM): 14.4% | viability, T/C (second compound 1 µM, first compound 1 µM): 21.6% | viability, T/C (second compound 1 µM, first compound 3.16 µM): 17.8% | viability, T/C (second compound 1 µM, first compound 10 µM): 16.9%
